# Test results as given in PMC3692398 (Biochemical pharmacology, 2013).
# Like-named read-outs stand apart in the source and are kept apart here.
# Experiments:
# [1] = target: T1, hDAT (Homo sapiens, UniProt Q01959); test: Inhibition of [125I]RTI-55 binding, HEK-hDAT membranes
# [2] = target: T2, hNET (Homo sapiens, UniProt P23975); test: biochemical; format: binding
# [3] = target: T1, hDAT; test: Inhibition of [3H]DA uptake, intact HEK-hDAT cells; format: cell-based
# [4] = target: T3, hSERT (Homo sapiens, UniProt P31645); test: Inhibition of [3H]5-HT uptake, intact HEK-hSERT cells; format: cell-based
# [5] = target: T2, hNET; test: cell-based; format: cell-based
# [6] = target: T1, hDAT; test: Superfusion release of preloaded [3H]DA from HEK-hDAT cells; format: cell-based; conditions: for % maximum release ± sem, hDAT [3H]DA: relative to maximal AUC induced by METH (1 or 10 µM)
# [7] = target: T3, hSERT; test: Superfusion release of preloaded [3H]5-HT from HEK-hSERT cells; format: cell-based
# [8] = target: T2, hNET; test: Superfusion release of preloaded [3H]NE from HEK-hNET cells; format: cell-based; conditions: for % maximum release ± sem, hNET [3H]NE: relative to maximal AUC induced by METH (0.3 or 1 µM)
# [9] = target: T4, hVMAT2 (Homo sapiens, UniProt Q05940); test: Inhibition of [3H]DHTB binding, HEK-hVMAT2 membranes
# [10] = target: T4, hVMAT2; test: Inhibition of [3H]5-HT uptake, HEK-hVMAT2 membrane preparation; format: biochemical
# [11] = target: T4, hVMAT2; test: Superfusion release of preloaded [3H]NE from HEK-hVMAT2 cells; format: cell-based
# [12] = target: T5, h5-HT1A receptor (Homo sapiens, UniProt P08908); test: [3H]8-OH-DPAT binding, HEK-h5-HT1A
# T5 sequence (P08908 1-422): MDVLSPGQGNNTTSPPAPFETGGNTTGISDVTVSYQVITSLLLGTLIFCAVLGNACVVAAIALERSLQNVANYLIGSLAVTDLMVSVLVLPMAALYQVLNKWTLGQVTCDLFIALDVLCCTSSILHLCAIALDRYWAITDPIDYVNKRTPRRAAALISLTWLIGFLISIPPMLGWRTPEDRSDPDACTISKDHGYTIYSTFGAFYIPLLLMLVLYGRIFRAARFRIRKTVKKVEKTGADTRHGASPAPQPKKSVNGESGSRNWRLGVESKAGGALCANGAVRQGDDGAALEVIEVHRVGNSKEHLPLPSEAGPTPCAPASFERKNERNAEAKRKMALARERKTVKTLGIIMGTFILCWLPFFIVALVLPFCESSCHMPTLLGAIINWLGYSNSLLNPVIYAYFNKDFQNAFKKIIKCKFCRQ
# [13] = target: T6, h5-HT2A receptor (Homo sapiens, UniProt P28223); test: [125I]DOI binding, HEK-h5-HT2A
# [14] = target: T5, h5-HT1A receptor; test: Stimulation of [35S]GTPγS binding, HEK-h5-HT1A membranes; format: biochemical
# [15] = target: T6, h5-HT2A receptor; test: Inhibition of 5-HT-stimulated IP-1 formation; format: cell-based; conditions: for h5-HT2A Inhibition of 5-HT-stimulated IP-1 formation % maximum inhibition ± sem: normalized to maximal inhibition by ketanserin (10 µM)
# [16] = target: T7, h5-HT2C receptor (Homo sapiens, UniProt P28335); test: Inhibition of 5-HT-stimulated IP-1 formation; format: cell-based; conditions: for h5-HT2C Inhibition of 5-HT-stimulated IP-1 formation % maximum inhibition ± sem: 100 nM 5-HT, normalized to maximal inhibition by SB242084 (1 µM)
# T7 sequence (P28335 33-458): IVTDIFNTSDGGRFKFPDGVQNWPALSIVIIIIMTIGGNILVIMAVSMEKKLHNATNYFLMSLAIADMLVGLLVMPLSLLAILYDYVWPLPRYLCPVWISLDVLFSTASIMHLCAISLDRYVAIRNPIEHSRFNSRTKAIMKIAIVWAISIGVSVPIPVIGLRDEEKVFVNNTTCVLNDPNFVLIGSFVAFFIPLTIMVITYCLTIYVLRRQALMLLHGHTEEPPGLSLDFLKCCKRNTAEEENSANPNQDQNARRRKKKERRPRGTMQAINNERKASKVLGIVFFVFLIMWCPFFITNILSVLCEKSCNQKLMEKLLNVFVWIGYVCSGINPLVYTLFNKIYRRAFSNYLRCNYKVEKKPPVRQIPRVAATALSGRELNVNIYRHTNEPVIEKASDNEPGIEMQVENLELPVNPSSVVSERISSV
# [17] = target: T8, hSigma1 receptor (Homo sapiens, UniProt Q99720); test: [3H]; format: binding
# [18] = target: human DA D1 receptor (Homo sapiens, UniProt P21728); test: [3H]SCH23390 binding, LhD1 cells; conditions: test drugs up to the maximal concentration tested (10 µM)
# [19] = target: human DA D2 receptor (Homo sapiens, UniProt P14416); format: binding; conditions: test drugs up to the maximal concentration tested (10 µM)
# [20] = target: human DA D3 receptor (Homo sapiens, UniProt P35462); test: [3H]YM-09151-2 binding, CHOp-D3 cells; conditions: test drugs up to 10 µM; words give concentration range, 'low' = low nanomolar
# [21] = target: T9, human D4.4 receptor (Homo sapiens, UniProt P21917); format: binding; conditions: test drugs up to 10 µM; words give concentration range, 'low' = low nanomolar
# T9 sequence (P21917 1-419): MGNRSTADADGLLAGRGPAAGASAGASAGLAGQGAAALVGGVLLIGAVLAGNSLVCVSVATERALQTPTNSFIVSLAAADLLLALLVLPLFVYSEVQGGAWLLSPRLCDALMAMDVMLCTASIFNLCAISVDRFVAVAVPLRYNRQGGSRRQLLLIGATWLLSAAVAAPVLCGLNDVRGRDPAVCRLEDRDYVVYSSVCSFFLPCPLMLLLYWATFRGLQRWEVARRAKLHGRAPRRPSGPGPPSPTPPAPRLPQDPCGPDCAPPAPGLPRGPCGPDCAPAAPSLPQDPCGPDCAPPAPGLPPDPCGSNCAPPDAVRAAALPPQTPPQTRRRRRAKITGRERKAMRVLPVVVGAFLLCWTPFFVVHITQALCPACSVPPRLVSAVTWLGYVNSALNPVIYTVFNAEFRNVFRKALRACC
# [22] = target: T7, h5-HT2C receptor; format: cell-based
# [23] = target: T3, hSERT; test: Inhibition of [125I]RTI-55 binding, HEK-hSERT membranes
# [24] = target: T7, h5-HT2C receptor; test: biochemical; format: binding
# [25] = target: T6, h5-HT2A receptor; conditions: data not shown
# [26] = target: T8, hSigma1 receptor; conditions: read-out: hSigma1 Ki, published value; ref Lee et al., 2008; cited from earlier work
# T8 sequence (Q99720 whole entry): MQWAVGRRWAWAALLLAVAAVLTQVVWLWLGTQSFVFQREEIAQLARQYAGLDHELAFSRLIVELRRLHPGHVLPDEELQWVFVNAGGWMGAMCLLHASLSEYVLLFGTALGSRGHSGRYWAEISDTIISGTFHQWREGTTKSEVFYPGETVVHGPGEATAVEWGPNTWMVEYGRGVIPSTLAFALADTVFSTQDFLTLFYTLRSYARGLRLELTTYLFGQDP
# T6 sequence (P28223 whole entry): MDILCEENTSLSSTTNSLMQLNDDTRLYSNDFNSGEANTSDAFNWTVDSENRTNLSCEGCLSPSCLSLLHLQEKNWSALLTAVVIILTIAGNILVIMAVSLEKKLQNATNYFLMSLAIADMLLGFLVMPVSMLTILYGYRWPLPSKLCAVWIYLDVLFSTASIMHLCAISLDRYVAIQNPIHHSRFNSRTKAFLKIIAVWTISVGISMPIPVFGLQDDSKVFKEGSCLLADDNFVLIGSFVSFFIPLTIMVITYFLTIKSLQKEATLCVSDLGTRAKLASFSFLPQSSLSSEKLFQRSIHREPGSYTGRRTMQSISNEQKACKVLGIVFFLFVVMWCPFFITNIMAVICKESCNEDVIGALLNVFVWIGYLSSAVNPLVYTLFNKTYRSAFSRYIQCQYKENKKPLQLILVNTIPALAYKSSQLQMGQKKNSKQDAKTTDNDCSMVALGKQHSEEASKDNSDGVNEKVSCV
# T2 sequence (P23975 whole entry): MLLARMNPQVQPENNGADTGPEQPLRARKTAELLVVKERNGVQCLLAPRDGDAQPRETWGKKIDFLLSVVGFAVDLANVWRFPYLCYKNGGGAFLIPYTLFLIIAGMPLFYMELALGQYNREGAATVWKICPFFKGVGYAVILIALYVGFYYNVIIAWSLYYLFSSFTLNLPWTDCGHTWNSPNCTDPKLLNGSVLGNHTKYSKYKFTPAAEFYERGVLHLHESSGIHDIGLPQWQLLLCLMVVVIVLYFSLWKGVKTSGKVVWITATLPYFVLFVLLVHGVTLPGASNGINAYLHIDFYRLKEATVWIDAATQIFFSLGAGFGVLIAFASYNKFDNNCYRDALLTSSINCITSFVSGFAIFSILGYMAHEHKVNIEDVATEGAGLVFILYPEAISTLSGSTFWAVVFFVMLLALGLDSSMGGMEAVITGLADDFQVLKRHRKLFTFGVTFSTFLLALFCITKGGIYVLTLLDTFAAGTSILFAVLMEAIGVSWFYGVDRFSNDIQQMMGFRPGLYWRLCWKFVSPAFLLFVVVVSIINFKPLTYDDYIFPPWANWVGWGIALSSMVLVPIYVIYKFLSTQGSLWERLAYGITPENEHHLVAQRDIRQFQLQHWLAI
# T1 sequence (Q01959 whole entry): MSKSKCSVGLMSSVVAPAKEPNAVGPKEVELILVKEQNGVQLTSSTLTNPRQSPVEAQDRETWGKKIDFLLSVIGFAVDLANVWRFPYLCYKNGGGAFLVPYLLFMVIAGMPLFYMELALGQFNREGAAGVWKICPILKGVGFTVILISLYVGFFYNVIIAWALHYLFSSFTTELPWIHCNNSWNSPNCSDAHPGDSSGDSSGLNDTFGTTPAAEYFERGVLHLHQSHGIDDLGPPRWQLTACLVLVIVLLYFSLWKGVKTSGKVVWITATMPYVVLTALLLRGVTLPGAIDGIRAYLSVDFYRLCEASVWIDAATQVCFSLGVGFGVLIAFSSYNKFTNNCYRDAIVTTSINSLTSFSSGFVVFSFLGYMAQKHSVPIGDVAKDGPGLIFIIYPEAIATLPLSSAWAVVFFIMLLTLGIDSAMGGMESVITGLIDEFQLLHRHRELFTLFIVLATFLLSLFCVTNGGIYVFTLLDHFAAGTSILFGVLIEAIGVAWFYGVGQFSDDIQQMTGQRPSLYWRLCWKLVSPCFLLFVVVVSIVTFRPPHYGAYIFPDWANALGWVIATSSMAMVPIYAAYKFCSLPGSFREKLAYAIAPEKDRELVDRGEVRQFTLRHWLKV
# T3 sequence (P31645 whole entry): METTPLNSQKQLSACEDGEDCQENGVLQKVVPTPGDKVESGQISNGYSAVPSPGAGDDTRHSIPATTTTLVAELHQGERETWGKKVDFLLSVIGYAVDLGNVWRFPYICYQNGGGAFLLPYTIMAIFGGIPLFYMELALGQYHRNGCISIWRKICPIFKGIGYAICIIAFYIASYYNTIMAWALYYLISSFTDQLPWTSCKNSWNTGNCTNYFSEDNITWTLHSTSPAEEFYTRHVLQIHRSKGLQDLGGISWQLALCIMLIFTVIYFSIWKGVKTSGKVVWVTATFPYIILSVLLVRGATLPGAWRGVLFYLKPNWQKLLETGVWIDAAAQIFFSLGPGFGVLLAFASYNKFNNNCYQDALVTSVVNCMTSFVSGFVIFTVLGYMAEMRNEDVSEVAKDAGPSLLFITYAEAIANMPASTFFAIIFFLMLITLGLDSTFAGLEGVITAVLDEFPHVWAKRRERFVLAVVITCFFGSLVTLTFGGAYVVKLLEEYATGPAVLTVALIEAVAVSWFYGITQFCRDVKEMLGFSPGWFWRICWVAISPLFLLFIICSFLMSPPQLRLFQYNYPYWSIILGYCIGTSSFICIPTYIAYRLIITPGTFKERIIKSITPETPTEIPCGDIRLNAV
# T4 sequence (Q05940 whole entry): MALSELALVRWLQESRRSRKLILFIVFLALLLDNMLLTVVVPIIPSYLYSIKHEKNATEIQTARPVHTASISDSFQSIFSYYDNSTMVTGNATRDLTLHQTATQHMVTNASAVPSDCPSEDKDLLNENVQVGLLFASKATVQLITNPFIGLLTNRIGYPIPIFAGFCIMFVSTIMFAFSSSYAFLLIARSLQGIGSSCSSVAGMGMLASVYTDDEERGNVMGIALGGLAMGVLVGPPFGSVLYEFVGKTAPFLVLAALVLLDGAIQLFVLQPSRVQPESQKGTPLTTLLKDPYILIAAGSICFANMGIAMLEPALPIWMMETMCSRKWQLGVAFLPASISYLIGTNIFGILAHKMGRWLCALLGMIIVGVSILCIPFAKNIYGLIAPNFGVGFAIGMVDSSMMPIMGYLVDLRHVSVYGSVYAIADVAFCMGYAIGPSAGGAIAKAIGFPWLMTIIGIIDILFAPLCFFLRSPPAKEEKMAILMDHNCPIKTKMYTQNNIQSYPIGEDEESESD
# Chain of human DA D1 receptor (P21728 whole entry): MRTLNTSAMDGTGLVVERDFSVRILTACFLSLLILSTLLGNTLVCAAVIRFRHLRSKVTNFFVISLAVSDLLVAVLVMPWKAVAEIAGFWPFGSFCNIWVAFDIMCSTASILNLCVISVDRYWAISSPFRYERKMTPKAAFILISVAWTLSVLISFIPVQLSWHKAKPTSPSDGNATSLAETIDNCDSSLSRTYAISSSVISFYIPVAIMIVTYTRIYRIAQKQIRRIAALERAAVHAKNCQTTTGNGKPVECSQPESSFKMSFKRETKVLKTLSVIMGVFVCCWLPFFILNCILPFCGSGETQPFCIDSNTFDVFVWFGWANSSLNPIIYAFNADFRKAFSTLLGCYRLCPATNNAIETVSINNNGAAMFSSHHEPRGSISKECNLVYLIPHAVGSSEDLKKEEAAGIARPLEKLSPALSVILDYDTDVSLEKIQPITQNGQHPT
# Chain of human DA D2 receptor (P14416 whole entry): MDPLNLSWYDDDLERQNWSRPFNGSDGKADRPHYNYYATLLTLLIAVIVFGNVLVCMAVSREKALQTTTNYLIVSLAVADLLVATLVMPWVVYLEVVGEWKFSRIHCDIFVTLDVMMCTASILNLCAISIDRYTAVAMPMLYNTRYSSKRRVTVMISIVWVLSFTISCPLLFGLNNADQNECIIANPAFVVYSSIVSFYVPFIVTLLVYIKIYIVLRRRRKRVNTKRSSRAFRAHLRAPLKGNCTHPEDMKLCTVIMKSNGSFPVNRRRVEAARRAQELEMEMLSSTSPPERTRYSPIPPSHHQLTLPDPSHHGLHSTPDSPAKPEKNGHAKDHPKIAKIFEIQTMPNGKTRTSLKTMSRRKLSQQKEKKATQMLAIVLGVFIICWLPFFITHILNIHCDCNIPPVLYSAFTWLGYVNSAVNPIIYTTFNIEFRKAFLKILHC
# Chain of human DA D3 receptor (P35462 whole entry): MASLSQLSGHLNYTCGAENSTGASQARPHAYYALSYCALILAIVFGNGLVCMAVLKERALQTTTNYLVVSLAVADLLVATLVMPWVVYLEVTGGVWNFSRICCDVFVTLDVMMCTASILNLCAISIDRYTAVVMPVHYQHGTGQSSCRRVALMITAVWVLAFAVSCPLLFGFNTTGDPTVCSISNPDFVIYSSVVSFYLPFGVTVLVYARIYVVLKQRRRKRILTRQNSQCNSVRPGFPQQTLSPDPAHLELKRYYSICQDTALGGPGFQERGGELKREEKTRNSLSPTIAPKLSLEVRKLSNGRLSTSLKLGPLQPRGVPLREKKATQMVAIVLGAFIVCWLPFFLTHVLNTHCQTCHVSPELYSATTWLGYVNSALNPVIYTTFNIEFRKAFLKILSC
smiles,measurement,setting,value
"CNC(C)Cc1ccc2c(c1)OCO2 (stereo not shown) [MDMA, 3,4-methylenedioxymethylamphetamine, reference compound]",Ki,"[1]; read-out: Inhibition of [125I]RTI-55 binding Ki ± sem, hDAT, HEK-hDAT membranes",22 ± 5.1 µM
same,Ki,"[2]; read-out: Inhibition of [125I]RTI-55 binding Ki ± sem, hNET",30.9 µM
same,IC50,"[3]; read-out: Inhibition of [3H]neurotransmitter uptake IC50 ± sem, hDAT [3H]DA, 20 nM [3H]DA, intact cells",0.201 ± 0.047 µM
same,IC50,"[4]; read-out: Inhibition of [3H]neurotransmitter uptake IC50 ± sem, hSERT [3H]5-HT, 20 nM [3H]5-HT, intact cells",0.109 ± 0.017 µM
same,IC50,"[5]; read-out: Inhibition of [3H]neurotransmitter uptake IC50 ± sem, hNET [3H]NE",0.0242 µM
same,EC50,"[6]; read-out: Drug-induced release of [3H]neurotransmitter EC50 ± sem, hDAT [3H]DA, superfusion, AUC",4.8 ± 2.3 µM
same,"% maximum release ± sem, hDAT [3H]DA",[6],104 ± 14%
same,"% maximum release ± sem, hSERT [3H]5-HT",[7],74 ±12%
same,EC50,"[7]; read-out: Drug-induced release of [3H]neurotransmitter EC50 ± sem, hSERT [3H]5-HT, superfusion, AUC",1.04 ± 0.27 µM
same,EC50,"[8]; read-out: Drug-induced release of [3H]neurotransmitter EC50 ± sem, hNET [3H]NE, superfusion, AUC",0.57 ± 0.19 µM
same,"% maximum release ± sem, hNET [3H]NE",[8],116 ± 11%
same,Ki,"[9]; read-out: Inhibition of [3H]DHTB binding Ki ± sem, hVMAT2",661 ± 58 µM
same,IC50,"[10]; read-out: Inhibition of [3H]5-HT uptake IC50 ± sem, hVMAT2, 40 nM [3H]5-HT, 2 mM MgATP",5.8 ± 1.4 µM
same,EC50,"[11]; read-out: Drug-induced release of [3H]NE EC50 ± sem, hVMAT2, superfusion",114 ± 40 µM
same,Ki,"[12]; read-out: Inhibition of radioligand binding Ki ± sem, h5-HT1A [3H]8OH-DPAT",14.1 ± 2.4 µM
same,Ki,"[13]; read-out: Inhibition of radioligand binding Ki ± sem, h5-HT2A [125I]DOI",8.3 ± 1.2 µM
same,h5-HT1A Stimulation of [35S]GTPγS binding % maximum stimulation ± sem,[14]; normalized to the maximal stimulation by 5-HT,65.8 ± 8.5%
same,EC50,[14]; read-out: h5-HT1A Stimulation of [35S]GTPγS binding EC50 ± sem,35 ± 14 µM
same,h5-HT2A Inhibition of 5-HT-stimulated IP-1 formation % maximum inhibition ± sem,[15]; 100 nM 5-HT,96.3 ± 3.8%
same,IC50,"[15]; read-out: h5-HT2A Inhibition of 5-HT-stimulated IP-1 formation IC50 ± sem, 100 nM 5-HT",189 ± 52 µM
same,h5-HT2C Inhibition of 5-HT-stimulated IP-1 formation % maximum inhibition ± sem,[16],9 ± 12%
same,Ki,"[17]; read-out: Inhibition of [3H]pentazocine binding Ki ± sem, hSigma1",19.4 ± 6.3 µM
same,"affinity for the [3H]SCH23390 binding site, DA D1 receptor",[18],no measurable affinity
same,"affinity for the [3H]YM-09151-2 binding site, DA D2 receptor",[19],no measurable affinity
same,"affinity for the [3H]YM-09151-2 binding site, DA D3 receptor",[20],no measurable affinity
same,"affinity for the [3H]YM-09151-2 binding site, DA D4.4 receptor",[21],no measurable affinity
same,"h5-HT2C agonist activity, inositol monophosphate",[22],full agonist with low micromolar potency
"CN[C@@H](C)Cc1ccccc1 [METH, (+)methamphetamine, reference compound]",Ki,[1],3.96 ± 0.92 µM
same,Ki,[23],241 ± 8.9 µM
same,Ki,[2],1.39 ± 0.12 µM
same,IC50,[3],0.026 ± 0.01 µM
same,"ratio of binding Ki to uptake IC50, hDAT",[3]; [125I]RTI-55 Ki / [3H]DA uptake IC50,152
same,IC50,[4],4.1 ± 1.3 µM
same,"ratio of binding Ki to uptake IC50, hSERT",[4]; [125I]RTI-55 Ki / [3H]5-HT uptake IC50,59
same,IC50,[5],0.026 ± 0.0077 µM
same,"ratio of binding Ki to uptake IC50, hNET",[5],53
same,EC50,[6],0.4 ± 0.12 µM
same,"% maximum release ± sem, hDAT [3H]DA",[6],101.9 ± 4.9%
same,"% maximum release ± sem, hSERT [3H]5-HT",[7],97.6 ± 7.2%
same,EC50,[7],22.4 ± 0.24 µM
same,fold less potent than PCA to induce [3H]5-HT release,[7]; EC50 compared to PCA,28 fold
same,EC50,[8],0.128 ± 0.036 µM
same,"% maximum release ± sem, hNET [3H]NE",[8],92.7 ± 5.2%
same,Ki,[9],920 ± 110 µM
same,IC50,[10],4.72 ± 0.61 µM
same,EC50,[11],79 ± 29 µM
same,"Release of [3H]NE % maximum release ± sem or range, hVMAT2",[11],95.5 ± 2.1%
same,Ki,[12],5.9 ± 0.85 µM
same,Ki,[13],43.5 ± 9.1 µM
same,Ki,[24],10.2 ± 2.9 µM
same,EC50,[14],18.1 ± 4.2 µM
same,Emax,[14]; read-out: h5-HT1A Stimulation of [35S]GTPγS binding % maximum stimulation ± sem,66%
same,IC50,[15],112 ± 12 µM
same,h5-HT2A Inhibition of 5-HT-stimulated IP-1 formation % maximum inhibition ± sem,[15]; 100 nM 5-HT,100.0 ± 0.0%
same,IC50,[16],> 1000 µM
same,h5-HT2C Inhibition of 5-HT-stimulated IP-1 formation % maximum inhibition ± sem,[16],< 3%
same,Ki,"[17]; Inhibition of [3H]pentazocine binding Ki ± sem, hSigma1",3.18 ± 0.74 µM
same,"affinity for the [3H]SCH23390 binding site, DA D1 receptor",[18],no measurable affinity
same,"affinity for the [3H]YM-09151-2 binding site, DA D2 receptor",[19],no measurable affinity
same,"affinity for the [3H]YM-09151-2 binding site, DA D3 receptor",[20],no measurable affinity
same,"affinity for the [3H]YM-09151-2 binding site, DA D4.4 receptor",[21],no measurable affinity
same,"h5-HT2C agonist activity, inositol monophosphate",[22]; data not shown,partial agonists with midmicromolar potencies
same,"h5-HT2A agonist activity, inositol monophosphate",[25],partial agonist activity at millimolar concentrations
same,Ki,[26],5.2 µM
